Test system: PDE4
Test: PDE4 Assay Procedure ([3H]-cAMP SPA)
Format: biochemical
Experimental: Compounds to be tested were resuspended in DMSO at a stock concentration of 1 mM. The compounds were tested at different concentrations varying from 10 μM to 10 pM to calculate an IC50. These dilutions were done in 96-well plates. In some cases, plates containing diluted compounds were frozen before being assayed. In these cases, the plates were thawed at room temperature and stirred for 15 minutes.
Ten microliters of the diluted compounds were poured into a “low binding” assay plate. Eighty microliters of reaction mixture containing 50 mM Tris pH 7.5, 8.3 mM MgCl2, 1.7 mM EGTA, and 15 nM [3H]-cAMP were added to each well. The reaction was initiated by adding ten microliters of a solution containing PDE4. The plate was then incubated under stirring for 1 hour at room temperature. After incubation the reaction was stopped with 50 microlitres of SPA beads, and the reaction was allowed to incubate for another 20 minutes at room temperature before measuring radioactivity using standard instrumentation.
The reaction mixture was prepared by adding 90 ml of H2O to 10 ml of 10× assay buffer (500 mM Tris pH 7.5, 8.3 mM MgCl2, 17 mM EGTA), and 40 microlitres 1 μCi/μL [3H]-cAMP. SPA beads solution was prepared by adding 500 mg to 28 ml H2O for a final concentration of 20 mg/ml beads and 18 mM zinc sulphate.

Question: Which IC50 does the source give for CC(=O)c1c(-c2cccc(F)c2)nn(C(C)C)c(=O)c1Nc1cccnc1 [Example 91] here?
Answer: 9.4 nM

Question: Which IC50 does the source give for CCn1nc(-c2ccncc2)c(C(C)=O)c(Nc2cccc(Cl)c2)c1=O [Example 31, 5-Acetyl-4-[(3-chlorophenyl)amino]-2-ethyl-6-pyridin-4-ylpyridazin-3(2H)-one] here?
Answer: 4.5 nM

Question: With CCn1nc(-c2ccccc2)c(C(C)=O)c(Nc2cccnc2)c1=O [Example 63, 5-Acetyl-2-ethyl-6-phenyl-4-(pyridin-3-ylamino)pyridazin-3(2H)-one] as the compound, how does the IC50 read?
Answer: 24 nM

Question: Which IC50 does the source give for CCn1nc(-c2cccs2)c(C(C)=O)c(Nc2cccc(Cl)c2)c1=O [Example 52, 5-Acetyl-4-[(3-chlorophenyl)amino]-2-ethyl-6-thien-2-ylpyridazin-3(2H)-one] here?
Answer: 5.2 nM

Question: With CCn1nc(-c2cccnc2)c(C(C)=O)c(Nc2cccc(F)c2)c1=O [Example 1, 5-Acetyl-2-ethyl-4-[(3-fluorophenyl)amino]-6-pyridin-3-ylpyridazin-3(2H)-one] as the compound, how does the IC50 read?
Answer: 2.3 nM

Question: Which IC50 does the source give for CCn1nc(-c2cccnc2)c(C(C)=O)c(Nc2cccc3ccccc23)c1=O [Example 4, 5-Acetyl-2-ethyl-4-(1-naphthylamino)-6-pyridin-3-ylpyridazin-3(2H)-one] here?
Answer: 6.8 nM

Question: For CC(=O)c1c(-c2cccc(F)c2)nn(CC2CC2)c(=O)c1Nc1cccnc1 [Example 92, 5-Acetyl-2-cyclopropylmethyl-6-(3-fluorophenyl)-4-(pyridin-3-ylamino)-pyridazin-3(2H)-one], which IC50 is on record?
Answer: 11 nM

Question: With CCn1nc(-c2ccc(F)cc2)c(C(C)=O)c(Nc2cccnc2)c1=O [Example 93, 5-Acetyl-6-(4-fluorophenyl)-2-ethyl 4-(pyridin-3-ylamino)-pyridazin-3(2H)-one] as the compound, how does the IC50 read?
Answer: 8.3 nM

Question: For CCn1nc(-c2ccccc2)c(C(C)=O)c(Nc2cccc3ncccc23)c1=O [Example 82, 5-Acetyl-2-ethyl-6-phenyl-4-(quinolin-5-ylamino)pyridazin-3(2H)-one], which IC50 is on record?
Answer: 0.3 nM

Question: For CCn1nc(-c2ccccc2)c(C(C)=O)c(Nc2cccc3cccnc23)c1=O [Example 67, 5-Acetyl-2-ethyl-6-phenyl(quinolin-8-ylamino)pyridazin-3(2H)-one], which IC50 is on record?
Answer: 10 nM

Question: With CCn1nc(-c2ccccc2)c(C(C)=O)c(Nc2cccc3[nH]ccc23)c1=O [Example 69, 5-Acetyl-2-ethyl-4-(1H-indol-4-ylamino)-6-phenylpyridazin-3(2H)-one] as the compound, how does the IC50 read?
Answer: 2 nM

Question: With CCn1nc(-c2ccccc2)c(C(C)=O)c(Nc2cccc3cnccc23)c1=O [Example 84, 5-Acetyl-2-ethyl-4-(isoquinolin-5-ylamino)-6-phenylpyridazin-3(2H)-one] as the compound, how does the IC50 read?
Answer: 2.6 nM

Question: Which IC50 does the source give for CCn1nc(-c2ccncc2)c(C(C)=O)c(Nc2ccc(C(=O)O)cc2)c1=O [Example 41, 4-[(5-acetyl-2-ethyl-3-oxo-6-pyridin-4-yl-2,3-dihydropyridazin-4-yl)amino]benzoic acid] here?
Answer: 16 nM

Question: With CCn1nc(-c2ccncc2)c(C(C)=O)c(Nc2ccccc2C)c1=O [Example 33, 5-Acetyl-2-ethyl-4-[(2-methylphenyl)amino]-6-pyridin-4-ylpyridazin-3(2H)-one] as the compound, how does the IC50 read?
Answer: 0.11 nM

Question: With CCn1nc(-c2ccncc2)c(C(C)=O)c(Nc2cccc3ccccc23)c1=O [Example 32, 5-Acetyl-2-ethyl-4-(1-naphthylamino)-6-pyridin-4-ylpyridazin-3(2H)-one] as the compound, how does the IC50 read?
Answer: 0.59 nM

Test system: not given
Test: not given

Question: Which melting point does the source give for CCn1nc(-c2cccc(C)c2)c(C(C)=O)c(Nc2cccc3ncccc23)c1=O [Example 195, 5-Acetyl-2-ethyl-6-(3-methylphenyl)-4-(quinolin-5-ylamino)pyridazin-3(2H)-one] here?
Answer: 245 to 246.1 °C

Reference: patent US7491722B2, “Pyridazin-3(2H)-one derivatives” (Laboratorios Almirall S.A., priority 2002, dated 2009)
